Columns and labels:
recombinant human AChE = molecular target: T1, recombinant human AChE (Homo sapiens, UniProt P22303); test: In vitro AChE inhibition assay with recombinant human AChE in low-protein medium; assay type: biochemical
T1 construct: purchased Sigma-Aldrich (St. Louis, MO, USA)
Procedure: (§1) Inhibition of rat and human erythrocyte AChE by FNT and FNO was determined using rat and human blood. Additionally, in vitro AChE inhibition assay was also performed by exposing recombinant human AChE and self-prepared rat erythrocyte AChE to FNT and FNO in a low-protein medium to investigate the potential effect induced by blood matrix. Details are provided in the Supporting Information. […]
(§2) the remaining AChE activity in rat and human blood samples, respectively. Assays were conducted in triplicate, and the data obtained were analyzed in GraphPad Prism (version 5.04, San Diego, CA, USA) to define the concentration resulting in 50% inhibition (IC50).
(§3) In vitro AChE inhibition assay with self-prepared rat erythrocyte AChE and recombinant human […]
(§4) Based on the method described in Zhao et al. (2021), rat erythrocyte AChE was prepared from rat whole blood and the AChE activity was quantified (0.16 U/mL). The inhibition ability of FNT and FNO towards rhAChE and rat erythrocyte AChE was evaluated using a modified protocol (Zhao et al. 2021), and assays were conducted in triplicate. […] After 15 min incubation at 37℃, 150 µL reaction reagent (mixture of ATC at a final concentration of 150 µM and DTNB at a final concentration of 75 µM) was added, and the absorbance at 412 nm was measured continuously for 10 min at 37℃ to test the remaining AChE activity. The AChE activity was expressed as the remaining AChE activity relative to solvent control (100% activity) and positive control (0% activity) based on the equation (Eq S2): […]
(§5) A 412(t10 - t0) Test Compoundwhere is the change of the absorbance at 412 nm between 0 min and 10 min for the test compound; similarly, A 412(t10 - t0) Positive Control is the change of the absorbance for the CPO sample, and A 412(t10 - t0) Solvent Control the change of the absorbance for the 0.2% ethanol sample. […]
(§6) is relevant for the toxicity prediction following acute FNT exposure. The normalized sensitivity coefficients (SCs) were calculated with the equation (Eq S3)

[1] = assumed default for neutral and acidic compounds, no experimental data; cited from earlier work
rat erythrocyte AChE = molecular target: T2, rat erythrocyte AChE (Rattus norvegicus, UniProt P37136); test: In vitro AChE inhibition assay with rat blood; assay type: biochemical
T2 construct: tissue Innovative Research Inc. (Novi, MI, USA); host or cells: rat whole blood (Sprague-Dawley), K2EDTA
T2 sequence (P37136 other isoform, or with tags, fused parts or gaps): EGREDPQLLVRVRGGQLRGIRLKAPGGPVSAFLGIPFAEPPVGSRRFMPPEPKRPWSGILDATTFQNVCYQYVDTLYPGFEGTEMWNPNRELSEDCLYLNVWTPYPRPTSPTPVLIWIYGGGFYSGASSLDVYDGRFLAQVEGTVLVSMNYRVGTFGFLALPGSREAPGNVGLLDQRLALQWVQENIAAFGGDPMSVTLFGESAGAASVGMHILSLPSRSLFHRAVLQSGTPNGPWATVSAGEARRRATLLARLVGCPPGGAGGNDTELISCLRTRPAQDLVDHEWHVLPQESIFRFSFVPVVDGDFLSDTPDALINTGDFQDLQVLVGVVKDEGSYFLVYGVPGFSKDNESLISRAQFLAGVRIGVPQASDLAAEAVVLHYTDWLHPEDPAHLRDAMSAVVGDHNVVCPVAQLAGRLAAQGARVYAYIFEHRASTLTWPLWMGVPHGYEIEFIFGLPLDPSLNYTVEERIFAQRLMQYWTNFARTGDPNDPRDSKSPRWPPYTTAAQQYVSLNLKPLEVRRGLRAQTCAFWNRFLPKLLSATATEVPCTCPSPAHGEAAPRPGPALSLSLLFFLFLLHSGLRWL
Procedure: as §1
(§7) Calculation of kinetic parameters […]
(§8) Protein concentration determination for rat and human plasma […]
(§9) In vitro AChE inhibition assay with rat and human blood
(§10) Inhibition of rat and human erythrocyte AChE by FNT and FNO was determined using the protocol from Kasteel et al. (2021). The final concentrations of FNT and FNO in rat and human blood ranged from 0.05 to 500 µM and from 0.01 to 20 µM, respectively (added from 1000 times concentrated stock solutions in ethanol). Absorbance at 436 nm was measured continuously for 60 min and 10 min to detect […]
(§11) the remaining AChE activity in rat and human blood samples, respectively. Assays were conducted in triplicate, and the data obtained were analyzed in GraphPad Prism (version 5.04, San Diego, CA, USA) to define the concentration resulting in 50% inhibition (IC50). […]

[2] = molecular target: T3, self-prepared rat erythrocyte AChE (Rattus norvegicus, UniProt P37136); test: In vitro AChE inhibition assay with self-prepared rat erythrocyte AChE in low-protein medium; assay type: biochemical
T3 construct: rat erythrocyte AChE was prepared from rat whole; tissue BioIVT (West Sussex, UK); host or cells: rat whole blood (Sprague-Dawley, mixed gender, LiHep); erythrocyte AChE prepared in house
T3 sequence (P37136 other isoform, or with tags, fused parts or gaps): as above
Procedure: as §1, §2, §3, §4, §5, §6

human erythrocyte AChE = molecular target: T4, human erythrocyte AChE (Homo sapiens, UniProt P22303); test: In vitro AChE inhibition assay with human blood; assay type: biochemical
T4 construct: tissue CTIBiotech (Lyon, France); host or cells: human whole peripheral blood, K2EDTA
T4 sequence (P22303 32-617 isoform P22303-2 limits assumed): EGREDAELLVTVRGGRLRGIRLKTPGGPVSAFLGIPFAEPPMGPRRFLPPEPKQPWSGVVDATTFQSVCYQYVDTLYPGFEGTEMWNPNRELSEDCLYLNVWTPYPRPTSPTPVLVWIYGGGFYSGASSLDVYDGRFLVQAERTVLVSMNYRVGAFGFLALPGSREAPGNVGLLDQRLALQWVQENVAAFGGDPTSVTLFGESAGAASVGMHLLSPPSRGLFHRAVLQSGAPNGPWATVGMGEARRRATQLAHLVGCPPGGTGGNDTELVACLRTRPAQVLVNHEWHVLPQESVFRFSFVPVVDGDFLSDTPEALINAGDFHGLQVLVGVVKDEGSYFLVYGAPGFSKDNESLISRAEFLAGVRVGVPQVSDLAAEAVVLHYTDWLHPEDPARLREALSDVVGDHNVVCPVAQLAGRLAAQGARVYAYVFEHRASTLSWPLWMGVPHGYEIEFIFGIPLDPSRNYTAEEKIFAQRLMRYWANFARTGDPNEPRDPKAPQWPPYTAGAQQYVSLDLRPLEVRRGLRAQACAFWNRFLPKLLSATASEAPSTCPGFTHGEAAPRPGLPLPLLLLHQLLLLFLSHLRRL
Procedure: as §1, §7, §8, §9, §10, §11

T1 sequence (P22303 32-614): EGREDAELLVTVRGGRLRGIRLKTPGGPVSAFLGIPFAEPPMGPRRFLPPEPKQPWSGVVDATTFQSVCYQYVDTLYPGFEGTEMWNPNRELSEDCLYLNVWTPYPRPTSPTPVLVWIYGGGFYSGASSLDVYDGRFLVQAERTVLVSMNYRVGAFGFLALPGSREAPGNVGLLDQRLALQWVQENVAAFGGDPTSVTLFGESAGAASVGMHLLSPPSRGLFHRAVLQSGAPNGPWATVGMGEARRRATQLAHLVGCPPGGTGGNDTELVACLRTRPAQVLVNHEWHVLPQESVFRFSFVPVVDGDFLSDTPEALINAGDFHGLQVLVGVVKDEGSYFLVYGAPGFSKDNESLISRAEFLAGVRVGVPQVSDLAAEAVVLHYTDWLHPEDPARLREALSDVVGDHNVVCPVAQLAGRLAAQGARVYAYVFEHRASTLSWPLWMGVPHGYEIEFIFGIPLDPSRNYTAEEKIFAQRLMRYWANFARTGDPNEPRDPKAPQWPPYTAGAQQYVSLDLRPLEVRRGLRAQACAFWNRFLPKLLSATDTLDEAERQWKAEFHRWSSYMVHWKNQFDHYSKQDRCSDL

Structure (SMILES) | IC50 (recombinant human AChE) [nM] | IC50 fold lower with recombinant human AChE than in human blood (recombinant human AChE; ratio of IC50 in human blood to IC50 with recombinant enzyme) [fold] | blood plasma ratio (BPr) [1] | IC50 (rat erythrocyte AChE) [nM] | IC50 [2] [nM] | IC50 fold lower with self-prepared rat erythrocyte AChE than in rat blood ([2]; ratio of IC50 in rat blood to IC50 with self-prepared enzyme) [fold] | IC50 (human erythrocyte AChE) [nM]
COP(=O)(OC)Oc1ccc([N+](=O)[O-])c(C)c1 [FNO, fenitrooxon] | 250 | 3.4 | 0.55 | 950 | 180 | 5.3 | 840
COP(=S)(OC)Oc1ccc([N+](=O)[O-])c(C)c1 [FNT, O,O-dimethyl O-4-nitro-m-tolyl phosphorothioate] | 30900 | – | 0.55 | ~500000 | 8240 | – | > 500000
